Laboratory results: patent US20250296971A1, “GASTRIC INHIBITORY PEPTIDE RECEPTOR LIGANDS” (priority 2021, published 2025)
Where two headings read alike, the source gives them in different places. *1 amine or outer side, *2 acyl side, *3 side chain or, on linkers, in order; H or OH if unused. Where a SMILES comes first, the peptide text is derived from it. Bridges are numbered along the chain shown (N, C = ends). [ ]: non-standard residue; d: D form. The star is where a group is joined. X5 = NC(=O)[C@H](CCCCNC(=O)CN1CCN(CC(=O)O)CCN(CC(=O)O)CCN(CC(=O)O)CC1)NC(=O)CCC(=O)NCCCOCCOCCOCCCN*; Trp(5-Cl) = N[C@@H](Cc1c[nH]c2ccc(Cl)cc12)C(=O)O; Phe(3,4-Cl2) = N[C@@H](Cc1ccc(Cl)c(Cl)c1)C(=O)O; Trp(5-OH) = N[C@@H](Cc1c[nH]c2ccc(O)cc12)C(=O)O; Pyridine(2,6-diCH2) = c1cc(C[*:1])nc(C[*:2])c1; 1Nal = N[C@@H](Cc1cccc2ccccc12)C(=O)O; mXylylene = c1cc(C[*:1])cc(C[*:2])c1; Hyp = O=C(O)[C@@H]1C[C@@H](O)CN1; Tle = CC(C)(C)[C@H](N)C(=O)O; Thp = NC1(C(=O)O)CCOCC1; Deg = CCC(N)(CC)C(=O)O; Aib = CC(C)(N)C(=O)O

Target: T1, GIPR (CHO-K1-hGIPR cells) (Homo sapiens, UniProt P48546)
T1 construct: host or cells: CHO-K1
T1 sequence (P48546 22-466): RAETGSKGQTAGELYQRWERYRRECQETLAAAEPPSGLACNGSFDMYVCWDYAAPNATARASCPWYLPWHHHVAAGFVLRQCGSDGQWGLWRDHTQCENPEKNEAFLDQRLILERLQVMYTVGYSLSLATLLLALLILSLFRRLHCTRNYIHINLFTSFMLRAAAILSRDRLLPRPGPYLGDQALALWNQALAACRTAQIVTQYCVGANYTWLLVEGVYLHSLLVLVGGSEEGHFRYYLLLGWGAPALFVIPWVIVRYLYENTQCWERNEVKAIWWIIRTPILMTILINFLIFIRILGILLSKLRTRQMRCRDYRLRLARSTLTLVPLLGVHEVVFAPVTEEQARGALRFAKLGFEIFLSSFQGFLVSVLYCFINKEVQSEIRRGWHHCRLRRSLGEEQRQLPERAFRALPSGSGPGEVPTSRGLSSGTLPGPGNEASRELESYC
Assay: FACS binding assay
Conditions: read-out: pIC50 Category (converted)
How it was run: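 Read-out: flow cytometric median fluorescence intensity, APC/Cy5 channel, plotted vs peptide conc.; 4PL fit → EC50/pEC50 or IC50/pIC50. Cells: CHO-K1-hGIPR, Accutase-detached, 500.000/mL in PBS + 1% FCS. Detection: APC-streptavidin 1 μg/mL, 30 min, on ice.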

[1] = competition with 20 nM GIP-057, 4° C. for 1 hour
[2] = competition with 20 nM GIP-057, 4° C., 1 hour

SMILES	IC50 [1] [µM]	IC50 [2] [µM]
CC[C@H](C)[C@@H]1NC(=O)[C@H](C(C)(C)C)NC(=O)C(C)(C)NC(=O)[C@@H](NC(=O)[C@H](CC(C)C)NC(=O)[C@H](CCC(=O)O)NC(=O)[C@@H]2CCCN2C(=O)[C@H](Cc2c[nH]c3ccccc23)NC(=O)[C@H](Cc2c[nH]c3ccccc23)NC(=O)[C@H](CC(=O)O)NC(C)=O)CSCc2cccc(c2)CSC[C@@H](C(=O)NCCCOCCOCCOCCCNC(=O)CCC(=O)N[C@@H](CCCCNC(=O)CN2CCN(CC(=O)O)CCN(CC(=O)O)CCN(CC(=O)O)CC2)C(N)=O)NC1=O [GIP-276, Ac-Asp-Trp-Trp-Pro-Glu-Leu-[Cys(3MeBn)-Aib-Tle-Ile-Cys]-Ttds-Lys(DOTA)-NH2] (Ac-DWWPELC[Aib][Tle]IC-X5; linker 7-11 via mXylylene)	0.1 to 0.794	–
CC[C@H](C)[C@@H]1NC(=O)[C@H](CC(C)C)NC(=O)C2(CCOCC2)NC(=O)[C@@H](NC(=O)[C@@H](NC(=O)[C@H](CCC(=O)O)NC(=O)[C@@H]2C[C@@H](O)CN2C(=O)[C@H](Cc2c[nH]c3ccc(Cl)cc23)NC(=O)[C@H](Cc2c[nH]c3ccccc23)NC(=O)[C@H](CC(=O)O)NC(C)=O)[C@@H](C)CC)CSCc2cccc(n2)CSC[C@@H](C(N)=O)NC1=O [GIP-218, Ac-Asp-Trp-5Clw-Hyp-Glu-Ile-[Cys(2Lut)-Thp-Leu-Ile-Cys]-NH2] (Ac-DW[Trp(5-Cl)][Hyp]EIC[Thp]LIC-NH2; linker 7-11 via Pyridine(2,6-diCH2))	–	< 0.01
CC[C@H](C)[C@@H]1NC(=O)[C@H](CC(C)C)NC(=O)C(C)(C)NC(=O)[C@@H](NC(=O)[C@@H](CC(C)C)NC(=O)[C@H](CCC(=O)O)NC(=O)[C@@H]2CCCN2C(=O)[C@H](Cc2c[nH]c3ccc(O)cc23)NC(=O)[C@H](Cc2c[nH]c3ccccc23)NC(=O)[C@H](CC(=O)O)NC(C)=O)CSCc2cccc(c2)CSC[C@@H](C(=O)NCCCOCCOCCOCCCNC(=O)CCC(=O)N[C@@H](CCCCNC(=O)CN2CCN(CC(=O)O)CCN(CC(=O)O)CCN(CC(=O)O)CC2)C(N)=O)NC1=O [GIP-302, Ac-Asp-Trp-Hyw-Pro-Glu-leu-[Cys(3MeBn)-Aib-Leu-Ile-Cys]-Ttds-Lys(DOTA)-NH2] (Ac-DW[Trp(5-OH)]PE[dL]C[Aib]LIC-X5; linker 7-11 via mXylylene)	> 1	–
CC[C@H](C)[C@@H]1NC(=O)[C@H](CC(C)C)NC(=O)[C@H](C)NC(=O)[C@@H](NC(=O)[C@H](CC(C)C)NC(=O)[C@H](CCC(=O)O)NC(=O)[C@H](C)NC(=O)[C@H](Cc2c[nH]c3ccccc23)NC(=O)[C@H](Cc2c[nH]c3ccccc23)NC(=O)[C@H](CC(=O)O)NC(=O)[C@H](Cc2ccc(O)cc2)NC(=O)[C@@H](N)CCSC)CSCc2cccc(c2)CSC[C@@H](C(N)=O)NC1=O [GIP-311] (H-MYDWWAELCALIC-NH2; linker 9-13 via mXylylene)	0.1 to 0.794	–
CC[C@H](C)[C@@H]1NC(=O)[C@H](CC(C)C)NC(=O)C(C)(C)NC(=O)[C@@H](NC(=O)[C@@H](NC(=O)[C@H](CCC(=O)O)NC(=O)[C@@H]2CCCN2C(=O)[C@H](Cc2c[nH]c3ccccc23)NC(=O)[C@H](Cc2c[nH]c3ccccc23)NC(=O)[C@H](CC(=O)O)NC(C)=O)C(C)(C)C)CSCc2cccc(c2)CSC[C@@H](C(=O)NCCCOCCOCCOCCCNC(=O)CCC(=O)N[C@@H](CCCCNC(=O)CN2CCN(CC(=O)O)CCN(CC(=O)O)CCN(CC(=O)O)CC2)C(N)=O)NC1=O [GIP-275, Ac-Asp-Trp-Trp-Pro-Glu-Tle-[Cys(3MeBn)-Aib-Leu-Ile-Cys]-Ttds-Lys(DOTA)-NH2] (Ac-DWWPE[Tle]C[Aib]LIC-X5; linker 7-11 via mXylylene)	0.1 to 0.794	–
CC[C@H](C)[C@@H]1NC(=O)[C@H](Cc2ccccc2)NC(=O)C2(CCOCC2)NC(=O)[C@@H](NC(=O)[C@@H](CC(C)C)NC(=O)[C@H](CCC(=O)O)NC(=O)[C@@H]2C[C@@H](O)CN2C(=O)[C@H](Cc2c[nH]c3ccc(Cl)cc23)NC(=O)[C@H](Cc2c[nH]c3ccccc23)NC(=O)[C@H](CC(=O)O)NC(C)=O)CSCc2cccc(n2)CSC[C@@H](C(N)=O)NC1=O [GIP-232, Ac-Asp-Trp-5Clw-Hyp-Glu-leu-[Cys(2Lut)-Thp-Phe-Ile-Cys]-NH2] (Ac-DW[Trp(5-Cl)][Hyp]E[dL]C[Thp]FIC-NH2; linker 7-11 via Pyridine(2,6-diCH2))	–	< 0.01
CC[C@H](C)[C@@H]1NC(=O)[C@H](CC(C)C)NC(=O)C2(CCOCC2)NC(=O)[C@@H](NC(=O)[C@@H](CC(C)C)NC(=O)[C@H](CCC(=O)O)NC(=O)[C@@H]2C[C@@H](O)CN2C(=O)[C@H](Cc2ccc(Cl)c(Cl)c2)NC(=O)[C@H](Cc2ccc(Cl)c(Cl)c2)NC(=O)[C@H](CC(=O)O)NC(C)=O)CSCc2cccc(n2)CSC[C@@H](C(N)=O)NC1=O [GIP-323, Ac-Asp-Eaa-Eaa-Hyp-Glu-leu-[Cys(2Lut)-Thp-Leu-Ile-Cys]-NH2] (Ac-D[Phe(3,4-Cl2)][Phe(3,4-Cl2)][Hyp]E[dL]C[Thp]LIC-NH2; linker 7-11 via Pyridine(2,6-diCH2))	0.1 to 0.794	–
CC[C@H](C)[C@@H]1NC(=O)[C@H](CC(C)C)NC(=O)[C@H](C)NC(=O)[C@@H](NC(=O)[C@H](CC(C)C)NC(=O)[C@H](CCC(=O)O)NC(C)=O)CSCc2cccc(c2)CSC[C@@H](C(N)=O)NC1=O [GIP-327, Ac-Glu-Leu-[Cys(3MeBn)-Ala-Leu-Ile-Cys]-NH2] (Ac-ELCALIC-NH2; linker 3-7 via mXylylene)	> 1	–
CC[C@H](C)[C@@H]1NC(=O)[C@H](CC(C)C)NC(=O)C(CC)(CC)NC(=O)[C@@H](NC(=O)[C@@H](CC(C)C)NC(=O)[C@H](CCC(=O)O)NC(=O)[C@@H]2CCCN2C(=O)[C@H](Cc2cccc3ccccc23)NC(=O)[C@H](Cc2c[nH]c3ccccc23)NC(=O)[C@H](CC(=O)O)NC(C)=O)CSCc2cccc(c2)CSC[C@@H](C(=O)NCCCOCCOCCOCCCNC(=O)CCC(=O)N[C@@H](CCCCNC(=O)CN2CCN(CC(=O)O)CCN(CC(=O)O)CCN(CC(=O)O)CC2)C(N)=O)NC1=O [GIP-139, Ac-Asp-Trp-1Ni-Pro-Glu-leu-[Cys(3MeBn)-Deg-Leu-Ile-Cys]-Ttds-Lys(DOTA)-NH2] (Ac-DW[1Nal]PE[dL]C[Deg]LIC-X5; linker 7-11 via mXylylene)	–	0.01 to 0.0794
CC[C@H](C)[C@@H]1NC(=O)[C@H](CC(C)C)NC(=O)[C@H](C)NC(=O)[C@@H](NC(=O)[C@H](CC(C)C)NC(=O)[C@H](CCC(=O)O)NC(=O)[C@H]2CCCN2C(=O)[C@H](Cc2c[nH]c3ccccc23)NC(=O)[C@H](Cc2c[nH]c3ccccc23)NC(=O)[C@H](CC(=O)O)NC(=O)[C@H](Cc2ccc(O)cc2)NC(=O)[C@@H](N)CCSC)CSCc2cccc(c2)CSC[C@@H](C(N)=O)NC1=O [GIP-328, H-Met-Tyr-Asp-Trp-Trp-pro-Glu-Leu-[Cys(3MeBn)-Ala-Leu-Ile-Cys]-NH2] (H-MYDWW[dP]ELCALIC-NH2; linker 9-13 via mXylylene)	> 1	–
CC[C@H](C)[C@@H]1NC(=O)[C@H](CC(C)C)NC(=O)[C@H](Cc2ccccc2)NC(=O)[C@@H](NC(=O)[C@@H](CC(C)C)NC(=O)[C@H](CCC(=O)O)NC(=O)[C@@H]2C[C@@H](O)CN2C(=O)[C@H](Cc2c[nH]c3ccc(Cl)cc23)NC(=O)[C@H](Cc2c[nH]c3ccccc23)NC(=O)[C@H](CC(=O)O)NC(C)=O)CSCc2cccc(n2)CSC[C@@H](C(N)=O)NC1=O [GIP-228, Ac-Asp-Trp-5Clw-Hyp-Glu-leu-[Cys(2Lut)-Phe-Leu-Ile-Cys]-NH2] (Ac-DW[Trp(5-Cl)][Hyp]E[dL]CFLIC-NH2; linker 7-11 via Pyridine(2,6-diCH2))	–	< 0.01
